Experimental data as given in US20190201419A1, “COMPOUND AND METHOD FOR THE TREATMENT AND DIAGNOSIS OF NEURODEGENERATIVE CONDITIONS” (Swansea University, priority 2013, published 2019).

Columns and labels:
Lxrα = target: T1, Lxrα (Homo sapiens, UniProt Q13133); test: Lxrα luciferase reporter assay in SN4741 neural cells; type: cell-based, mouse; settings: 10 μM, 24 h
T1 construct: expressed in transfected cells; host or cells: SN4741 mouse neuronal cell line
T1 sequence (Q13133 1-447): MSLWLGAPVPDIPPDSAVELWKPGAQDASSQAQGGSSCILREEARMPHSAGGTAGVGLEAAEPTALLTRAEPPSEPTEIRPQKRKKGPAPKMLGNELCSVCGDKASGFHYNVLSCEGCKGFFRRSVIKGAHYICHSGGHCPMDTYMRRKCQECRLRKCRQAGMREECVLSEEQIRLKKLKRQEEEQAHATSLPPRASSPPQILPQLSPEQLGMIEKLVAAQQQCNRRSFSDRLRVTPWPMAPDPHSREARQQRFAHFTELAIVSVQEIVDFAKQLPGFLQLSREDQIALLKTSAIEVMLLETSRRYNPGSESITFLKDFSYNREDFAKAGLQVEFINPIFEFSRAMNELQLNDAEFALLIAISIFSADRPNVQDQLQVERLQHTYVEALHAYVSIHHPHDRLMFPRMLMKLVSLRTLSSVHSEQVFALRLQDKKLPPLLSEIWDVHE
From the text: (§1) Luciferase Reporter Assay.

Lxrβ = target: T2, Lxrβ (Homo sapiens, UniProt P55055); test: Lxrβ luciferase reporter assay in SN4741 neural cells; type: cell-based, mouse; settings: for Lxr activational capacity in combination with 22R-HC: 10 μM acid + 10 μM 22R-HC; for Lxrβ activation, luciferase activity (fold activation): SN4741 cells, 10 μM, 24 h
T2 construct: expressed in transfected cells; host or cells: SN4741 mouse neuronal cell line
T2 sequence (P55055 1-460): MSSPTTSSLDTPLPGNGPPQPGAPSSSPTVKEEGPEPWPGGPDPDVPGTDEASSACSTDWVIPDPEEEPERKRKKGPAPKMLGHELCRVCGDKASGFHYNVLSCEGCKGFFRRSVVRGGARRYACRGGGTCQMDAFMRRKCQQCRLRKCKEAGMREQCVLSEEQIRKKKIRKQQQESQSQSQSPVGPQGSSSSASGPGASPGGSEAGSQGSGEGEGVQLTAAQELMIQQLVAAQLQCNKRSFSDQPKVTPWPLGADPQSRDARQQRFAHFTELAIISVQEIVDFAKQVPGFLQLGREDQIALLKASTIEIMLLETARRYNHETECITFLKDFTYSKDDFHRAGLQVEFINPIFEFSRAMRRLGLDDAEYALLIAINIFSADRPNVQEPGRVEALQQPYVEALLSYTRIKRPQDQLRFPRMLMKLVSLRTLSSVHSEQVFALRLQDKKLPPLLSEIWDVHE
From the text: as §1

[1] = tested on: Islet1+ oculomotor neurons; test: In utero injection into the cerebral aqueduct of E11.5 mice; type: in vivo, mouse; settings: for Number of Islet+ oculomotor neurons in vivo: injected at E11.5, analyzed at E13.5
From the text: Animals for in-utero injections and tissue preparation. Female wild-type CD-1 mice ([…]; Charles River Breeding Laboratories) were housed, bred, and treated according to the guidelines of the European Communities Council (directive 86/609/EEC) and the Society for Neuroscience (www.sfr.org/handbook), and all experiments were approved by the local ethical committee. Ethical approval for CD-1 mice experimentation was granted by Stockholm Norra Djurförsökselisks Nämnd number N154/06, N273/11 and N370/09, For embryo analyses, wild type CD-1 mice were mated overnight, and noon of the day the plug was considered E0.5. Embryos were dissected out of the uterine horns in ice-cold PBS, fixed in 4% paraformaldehyde (PFA) for 4 h to overnight, cryoprotected in 15-30% sucrose, frozen in Tissue-Tek Optimum Cutting Temperature (OCT) compound (Sakura Fine-Tek) on dry ice, and stored at −80° C. until use. Serial coronal 14-μm sections of the brain were obtained on a cryostat.
Immunohistochemical analysis of sections. Ten sets of 14 μm serial coronal sections were cut on a cryostat. No. 1 and 6 sets were subjected to immunohistochemistry. Sections were pre-incubated for 1 h in blocking solution followed by incubation at 4° C. overnight with following primary antibodies: anti-TH (1:750, Pel-Freeze), anti-Islet-1 (1:100; Developmental Studies Hybridoma Bank), anti-cleaved caspase-3 (Asp175) (1:100; Cell Signaling Technology). After washing, slides were incubated for 1-2 h at room temperature with the appropriate fluorophore-conjugated (Cy2-, Cy5-, 1:300, Jackson Laboratories; Alexa488-, 555-, and 647-, 1:1000, Invitrogen) secondary antibodies. Confocal pictures were taken with a Zeiss LSM5 Exciter or LSM700 microscope.
In utero intraventricular injections. E11.5 pregnant females were deeply anesthetized using Isofluorane (IsoFlo®, Abbott Labs) and the uterine horns were accessed through an abdominal incision. 1 μL, of the different cholestenoic acids studied (5 mM) or vehicle solution (isopropanol, 50% v/v) was injected into the cerebral aqueduct. […] Embryos were analyzed 48 h later.

[2] = tested on: TH+ dopamine neurons, GABAergic or red nucleus neurons; Nkx6.1+ cells; test: Other cell types in mouse E11.5 brain primary cultures; type: cell-based
Description: Primary Brain Cultures. Brains from E11.5 mice were manually dissected, plated on poly-D-lysine (150,000 cells/cm^2) and grown in serum-free N2 media consisting of 1:1 mixture of F12 and DMEM with 10 ng/mL insulin, 100 μg/mL apo-transferrin, 100 μM putrescine, 20 nM progesterone, 30 nM selenium, 6 mg/mL glucose, and 1 mg/mL BSA. Cells were treated for 3 days in vitro (DIV) with the compounds of interest, fixed with 4% PFA and processed for staining using appropriate antibodies.
Antibodies and Detection Procedures. Cells were fixed in 4% PFA, washed in PBS and blocked in 5% normal goat serum/PBS for 1 h at room temperature. Primary antibodies were diluted in PBS (pH 7.4), 0.3% Triton X-100, 1% BSA and incubations were carried out overnight at +4° C. or at room temperature for 2 h. The antibodies used were anti-:BrdU (1:400; Abeam), Islet-1 (1:100: Developmental Studies Hybridoma Bank), cleaved caspase-3 (Aspt 75) (1:100; Cell Signaling Technology), tyrosine hydroxylase (TH; 1:1000; Pel-Freeze) GABA (1:1,000; Sigma), Bm3a (1:250; Millipore), Nkx6.1 (1:200; Novus Biologicals), choline acetyltransferase (ChAT; 1:500; Millipore) and appropriate secondary antibodies (Jackson ImmunoResearch or Alexa). Cells positive for the corresponding marker were counted directly at the microscope at a magnification of 20×. Cells were counted in every well, in eight consecutive fields (going from one side of the well to the other, passing through the center), in three different wells per experiment and in three different experiments per condition. Random pictures of the wells were taken for every condition to document the result, and representative pictures were subsequently selected to represent the quantitative data. Photos were acquired with a Zeiss Axioplan microscope and a Hamamatsu camera C4742-95 using the Openlab software.

Row | Structure (SMILES) | Lxrα activation, luciferase activity (fold activation) (Lxrα) | Lxr activational capacity in combination with 22R-HC (Lxrβ) | Lxrβ activation, luciferase activity (fold activation) (Lxrβ) | Number of Islet+ oculomotor neurons in vivo [1] | Total number of Nkx6.1+ cells [2] | Effect of co-injection on the reduction of oculomotor neurons by 3β-HCA ([1]; co-injection with 3β-HCA) | Number of other midbrain neurons (TH+ dopamine, GABAergic, red nucleus) ([2]; data not shown)
1 | CC(CCC[C@@H](C)[C@H]1CC[C@H]2[C@@H]3CC=C4C[C@@H](O)CC[C@]4(C)[C@H]3CC[C@]12C)C(=O)O (stereo partly drawn) [3β-HCA, 3β-hydroxycholest-5-en-26-oic acid] | activates Lxr | No additive effect was observed | activates Lxr | the number of oculomotor neurons was reduced | neither 3β,7α-diHCA nor 3β-HCA altered the total number of Nkx6.1+ cells | – | –
2 | CC(CCC[C@@H](C)[C@H]1CC[C@H]2[C@@H]3[C@H](O)C=C4C[C@@H](O)CC[C@]4(C)[C@H]3CC[C@]12C)C(=O)O (stereo partly drawn) [3β,7α-diHCA, 3β,7α-dihydroxycholest-5-en-26-oic acid] | have the ability to activate both Lxrs | No additive effect was observed | have the ability to activate both Lxrs | an increase in the number of Islet+ oculomotor neurons | neither 3β,7α-diHCA nor 3β-HCA altered the total number of Nkx6.1+ cells | this effect was eliminated by co-injection of 3β,7α-diHCA | did not affect the number of other midbrain neurons
